Source: US20070010671A1, “Novel quinazoline derivatives and methods of treatment related to the use thereof” (priority 2003, published 2007)
pIC50: −log10 of the molar value.

The molecules below were run against MCH receptor (Homo sapiens, UniProt Q99705) (assay: High throughput functional screening FLIPR/FDSS6000: inhibition of MCH-evoked intracellular Ca2+ changes). Settings: class by percent of control at 10^-7 M or IC50.
Assay type: cell-based
Procedure, shortened: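 Antagonism was measured as inhibition of calcium responses to 50 nM MCH, monitored 290 s at ex 488/em 530 nm on FLIPR or FDSS6000. Beforehand, cells bearing a constitutively active MCH receptor received Fluo4-AM (4 μM, 1 h, 37 °C) with probenecid, and test compound for 3 min.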
In the case of `CN(C)c1nc(N[C@H]2CC[C@@H](NC(=S)NCCc3ccccc3)CC2)nc2ccccc12` [compound 203], the class was 3 (Class 3: The value of percent of control at 10^−7 M was more than 60% or the value of IC50 was more than 200 nM.). In the case of `COc1ccc(NC(=S)N[C@H]2CC[C@@H](Nc3nc(N(C)C)c4ccccc4n3)CC2)cc1OC` [compound 204], the class was 1 (Class 1: The value of percent of control at 10^−7 M was less than 40% or the value of IC50 was less than 50 nM.). In the case of `CCc1ccc(NC(=S)N[C@H]2CC[C@@H](Nc3nc(N(C)C)c4ccccc4n3)CC2)cc1` [compound 205], the class was 2 (Class 2: The value of percent of control at 10^−7 M was from 40% to 60% or the value of IC50 was from 50 nM to 200 nM.). With `CSc1ccccc1NC(=S)N[C@H]1CC[C@@H](Nc2nc(N(C)C)c3ccccc3n2)CC1` [compound 206] the class was 2 (Class 2: The value of percent of control at 10^−7 M was from 40% to 60% or the value of IC50 was from 50 nM to 200 nM.).

Same assay, conditions: class by percent of control at 10^-7 M or by IC50; read-out: class
With `CN(C)c1nc(N[C@H]2CC[C@@H](NC(=S)Nc3ccc(Br)cc3)CC2)nc2ccccc12` [compound 158, N-(4-bromophenyl)-N′-(cis-4-{[4-(dimethylamino)quinazolin-2-yl]amino}cyclohexyl)thiourea] the pIC50 was over 7.30. In the case of `CCCCNC(=S)N[C@H]1CC[C@@H](Nc2nc(N(C)C)c3ccccc3n2)CC1` [compound 159], the pIC50 was under 6.70. For `CN(C)c1nc(N[C@H]2CC[C@@H](NC(=S)Nc3ccc(C#N)cc3)CC2)nc2ccccc12` [compound 160, N-(4-cyanophenyl)-N′-(cis-4-{[4-(dimethylamino)quinazolin-2-yl]amino}cyclohexyl)thiourea], the pIC50 was over 7.30. With `CN(C)c1nc(N[C@H]2CC[C@@H](NC(=S)NC3CCCCC3)CC2)nc2ccccc12` [compound 161, N-cyclohexyl-N′-(cis-4-{[4-(dimethylamino)quinazolin-2-yl]amino}cyclohexyl)thiourea] the pIC50 was 6.70 to 7.30. `CN(C)c1nc(N[C@H]2CC[C@@H](NC(=S)NC3CCCC3)CC2)nc2ccccc12` [compound 162, N-cyclopentyl-N′-(cis-4-{[4-(dimethylamino)quinazolin-2-yl]amino}cyclohexyl)thiourea] showed a pIC50 of 6.70 to 7.30. `CN(C)c1nc(N[C@H]2CC[C@@H](NC(=S)Nc3cccc(Cl)c3)CC2)nc2ccccc12` [compound 163] gave a pIC50 of under 6.70. `CN(C)c1nc(N[C@H]2CC[C@@H](NC(=S)Nc3ccc(Cl)cc3)CC2)nc2ccccc12` [compound 164] was tested, and the pIC50 was 6.70 to 7.30. `CN(C)c1nc(N[C@H]2CC[C@@H](NC(=S)Nc3ccc(Cl)cc3Cl)CC2)nc2ccccc12` [compound 165, N-(2,4-dichlorophenyl)-N′-(cis-4-{[4-(dimethylamino)quinazolin-2-yl]amino}cyclohexyl)thiourea] gave a pIC50 of over 7.30. For `COc1ccc(NC(=S)N[C@H]2CC[C@@H](Nc3nc(N(C)C)c4ccccc4n3)CC2)c(OC)c1` [compound 166], the pIC50 was over 7.30. For `CN(C)c1nc(N[C@H]2CC[C@@H](NC(=S)Nc3cc(F)ccc3F)CC2)nc2ccccc12` [compound 167], the pIC50 was under 6.70. For `CN(C)c1nc(N[C@H]2CC[C@@H](NC(=S)Nc3cc(Cl)ccc3Cl)CC2)nc2ccccc12` [compound 168], the pIC50 was under 6.70. `Cc1cccc(C)c1NC(=S)N[C@H]1CC[C@@H](Nc2nc(N(C)C)c3ccccc3n2)CC1` [compound 169, N-(cis-4-{[4-(dimethylamino)quinazolin-2-yl]amino}cyclohexyl)-N′-(2,6-dimethylphenyl)thiourea] gave a pIC50 of over 7.30. In the case of `CN(C)c1nc(N[C@H]2CC[C@@H](NC(=S)Nc3ccc(Cl)c(Cl)c3)CC2)nc2ccccc12` [compound 170], the pIC50 was under 6.70. `CN(C)c1nc(N[C@H]2CC[C@@H](NC(=S)Nc3c(Cl)cccc3Cl)CC2)nc2ccccc12` [compound 171] was tested, and the pIC50 was under 6.70. Molecule `CCOc1ccc(NC(=S)N[C@H]2CC[C@@H](Nc3nc(N(C)C)c4ccccc4n3)CC2)cc1` [compound 172] has a pIC50 of under 6.70. With `CCc1cccc(C(C)C)c1NC(=S)N[C@H]1CC[C@@H](Nc2nc(N(C)C)c3ccccc3n2)CC1` [compound 173, N-(cis-4-{[4-(dimethylamino)quinazolin-2-yl]amino}cyclohexyl)-N′-(2-ethyl-6-isoprophylphenyl)thiourea] the pIC50 was over 7.30. Work on `CN(C)c1nc(N[C@H]2CC[C@@H](NC(=S)NCc3ccco3)CC2)nc2ccccc12` [compound 174] yielded a pIC50 of under 6.70. With `CN(C)c1nc(N[C@H]2CC[C@@H](NC(=S)Nc3ccc(F)cc3)CC2)nc2ccccc12` [compound 175, N-(cis-4-{[4-(dimethylamino)quinazolin-2-yl]amino}cyclohexyl)-N′-(4-fluorophenyl)thiourea] the pIC50 was 6.70 to 7.30. `CCCCCCNC(=S)N[C@H]1CC[C@@H](Nc2nc(N(C)C)c3ccccc3n2)CC1` [compound 176, N-(cis-4-{[4-(dimethylamino)quinazolin-2-yl]amino}cyclohexyl)-N′-hexylthiourea] was tested, and the pIC50 was 6.70 to 7.30. `CCC[C@H]1CC[C@H](c2ccc(NC(=S)N[C@H]3CC[C@@H](Nc4nc(N(C)C)c5ccccc5n4)CC3)cc2)CC1` [compound 177] gave a pIC50 of under 6.70. For `CC(C)CNC(=S)N[C@H]1CC[C@@H](Nc2nc(N(C)C)c3ccccc3n2)CC1` [compound 178, N-(cis-4-{[4-(dimethylamino)quinazolin-2-yl]amino}cyclohexyl)-N′-isobutylthiourea], the pIC50 was 6.70 to 7.30. With `COc1ccc(-c2ccccc2)cc1NC(=S)N[C@H]1CC[C@@H](Nc2nc(N(C)C)c3ccccc3n2)CC1` [compound 179, N-(cis-4-{[4-(dimethylamino)quinazolin-2-yl]amino}cyclohexyl)-N′-(4-methoxybiphenyl-3-yl)thiourea] the pIC50 was 6.70 to 7.30. Molecule `CN(C)c1nc(N[C@H]2CC[C@@H](NC(=S)NCc3ccc4c(c3)OCO4)CC2)nc2ccccc12` [compound 180, N-(1,3-benzodioxol-5-ylmethyl)-N′-(cis-4-{[4-(dimethylamino)quinazolin-2-yl]amino}cyclohexyl)thiourea] has a pIC50 of 6.70 to 7.30. With `Cc1cccc(NC(=S)N[C@H]2CC[C@@H](Nc3nc(N(C)C)c4ccccc4n3)CC2)c1` [compound 181] the pIC50 was under 6.70. Work on `CSc1ccc(NC(=S)N[C@H]2CC[C@@H](Nc3nc(N(C)C)c4ccccc4n3)CC2)cc1` [compound 182, N-(cis-4-{[4-(dimethylamino)quinazolin-2-yl]amino}cyclohexyl)-N′-[4-(methylthio)phenyl]thiourea] yielded a pIC50 of 6.70 to 7.30. Work on `COc1ccc(NC(=S)N[C@H]2CC[C@@H](Nc3nc(N(C)C)c4ccccc4n3)CC2)cc1` [compound 183, N-(cis-4-{[4-(dimethylamino)quinazolin-2-yl]amino}cyclohexyl)-N′-(4-methoxyphenyl)thiourea] yielded a pIC50 of 6.70 to 7.30. In the case of `C=C(C)CNC(=S)N[C@H]1CC[C@@H](Nc2nc(N(C)C)c3ccccc3n2)CC1` [compound 184], the pIC50 was under 6.70. With `COc1ccccc1NC(=S)N[C@H]1CC[C@@H](Nc2nc(N(C)C)c3ccccc3n2)CC1` [compound 185, N-(cis-4-{[4-(dimethylamino)quinazolin-2-yl]amino}cyclohexyl)-N′-(2-methoxyphenyl)thiourea] the pIC50 was over 7.30. Molecule `CNC(=S)N[C@H]1CC[C@@H](Nc2nc(N(C)C)c3ccccc3n2)CC1` [compound 186] has a pIC50 of under 6.70. Molecule `CN(C)c1nc(N[C@H]2CC[C@@H](NC(=S)Nc3cccc4ccccc34)CC2)nc2ccccc12` [compound 187, N-(cis-4-{[4-(dimethylamino)quinazolin-2-yl]amino}cyclohexyl)-N′-1-naphthylthiourea] has a pIC50 of over 7.30. `CN(C)c1nc(N[C@H]2CC[C@@H](NC(=S)Nc3cccc([N+](=O)[O-])c3)CC2)nc2ccccc12` [compound 188] was tested, and the pIC50 was under 6.70. With `CN(C)c1nc(N[C@H]2CC[C@@H](NC(=S)Nc3ccc([N+](=O)[O-])cc3)CC2)nc2ccccc12` [compound 189] the pIC50 was 6.70 to 7.30. In the case of `CN(C)c1nc(N[C@H]2CC[C@@H](NC(=S)NC(C)(C)CC(C)(C)C)CC2)nc2ccccc12` [compound 190], the pIC50 was under 6.70. `CN(C)c1nc(N[C@H]2CC[C@@H](NC(=S)Nc3ccccc3)CC2)nc2ccccc12` [compound 191] gave a pIC50 of under 6.70. Work on `CN(C)c1nc(N[C@H]2CC[C@@H](NC(=S)Nc3c(F)c(F)c(F)c(F)c3F)CC2)nc2ccccc12` [compound 192, N-(cis-4-{[4-(dimethylamino)quinazolin-2-yl]amino}cyclohexyl)-N′-(pentafluorophenyl)thiourea] yielded a pIC50 of 6.70 to 7.30. With `CCCNC(=S)N[C@H]1CC[C@@H](Nc2nc(N(C)C)c3ccccc3n2)CC1` [compound 193, N-(cis-4-{[4-(dimethylamino)quinazolin-2-yl]amino}cyclohexyl)-N′-propylthiourea] the pIC50 was 6.70 to 7.30. For `CN(C)c1nc(N[C@H]2CC[C@@H](NC(=S)Nc3cccc(C(F)(F)F)c3)CC2)nc2ccccc12` [compound 194], the pIC50 was under 6.70. Molecule `COc1cc(NC(=S)N[C@H]2CC[C@@H](Nc3nc(N(C)C)c4ccccc4n3)CC2)cc(OC)c1OC` [compound 195, N-(cis-4-{[4-(dimethylamino)quinazolin-2-yl]amino}cyclohexyl)-N′-(3,4,5-trimethoxyphenyl)thiourea] has a pIC50 of over 7.30. Work on `Cc1ccc(NC(=S)N[C@H]2CC[C@@H](Nc3nc(N(C)C)c4ccccc4n3)CC2)cc1` [compound 197, N-(cis-4-{[4-(dimethylamino)quinazolin-2-yl]amino}cyclohexyl)-N′-(4-methylphenyl)thiourea] yielded a pIC50 of 6.70 to 7.30. Work on `Cc1ccccc1NC(=S)N[C@H]1CC[C@@H](Nc2nc(N(C)C)c3ccccc3n2)CC1` [compound 198] yielded a pIC50 of under 6.70. `CN(C)c1nc(N[C@H]2CC[C@@H](NC(=S)NC(C)(C)C)CC2)nc2ccccc12` [compound 199] was tested, and the pIC50 was under 6.70. In the case of `CN(C)c1nc(N[C@H]2CC[C@@H](NC(=S)Nc3ccccc3Br)CC2)nc2ccccc12` [compound 201], the pIC50 was under 6.70. With `CN(C)c1nc(N[C@H]2CC[C@@H](NC(=S)Nc3ccccc3Cl)CC2)nc2ccccc12` [compound 202] the pIC50 was under 6.70.
